Reference: doi:10.64898/2025.12.18.695077v1, “Stereospecific GPG acylation by CLN8 drives BMP biosynthesis and its loss leads to Batten disease” (biorxiv, 2025)

What was measured:
[1] = biological target: T1, CLN8 (tag-cleaved, codon-optimised human CLN8 from yeast) (Homo sapiens, UniProt Q9UBY8); experiment: cryo-EM structure, […] A; type: binding; conditions: covalent acyl-enzyme intermediate at H138 proposed (continuous density not resolved), CoA at the dimer interface, incubated with 100 uM
T1 construct: full-length, C-terminal 6xHis tag cut with Factor Xa; expressed in S. cerevisiae W303.1B; homodimer in LMNG; residues 1-15 and 261-286 disordered

[2] = biological target: T1, CLN8 (tag-cleaved, codon-optimised human CLN8 from yeast); experiment: cryo-EM structure, […] A; type: binding; conditions: co-purified; transmembrane pocket of each monomer at the dimer interface, not the active site

CCCCCCCC/C=C\CCCCCCCC(=O)SCCNC(=O)CCNC(=O)[C@H](O)C(C)(C)COP(=O)(O)OP(=O)(O)OC[C@H]1O[C@@H](n2cnc3c(N)ncnc32)[C@H](O)[C@@H]1OP(=O)(O)O [C18:1-CoA]
cryo-EM structure, 2.7 A ([1]; oleoyl chain modelled in the active site): we determined cryo-EM structures of CLN8 prepared in the presence of either C18:1-CoA or C22:6-CoA

CC/C=C\C/C=C\C/C=C\C/C=C\C/C=C\C/C=C\CCC(=O)SCCNC(=O)CCNC(=O)[C@H](O)C(C)(C)COP(=O)(O)OP(=O)(O)OC[C@H]1O[C@@H](n2cnc3c(N)ncnc32)[C@H](O)[C@@H]1OP(=O)(O)O [C22:6-CoA]
cryo-EM structure, 2.7 A ([1]; C22:6 chain modelled in the active site): we determined cryo-EM structures of CLN8 prepared in the presence of either C18:1-CoA or C22:6-CoA

CC(C)(COP(=O)(O)OP(=O)(O)OC[C@H]1O[C@@H](n2cnc3c(N)ncnc32)[C@H](O)[C@@H]1OP(=O)(O)O)[C@@H](O)C(=O)NCCC(=O)NCCS [CoA]
cryo-EM structure, 3.65 A [2]: we observed two coenzyme A (CoA) molecules bound in pockets located within the transmembrane region
